According to ChEMBL document CHEMBL5352410, “Discovery of novel selenium-containing azole derivatives as antifungal agents by exploiting the hydrophobic cleft of CYP51” (Eur J Med Chem, 2022):
pIC50: −log10 of the molar value. ≈ marks a conversion by molar mass, not a printed value.

Legend:
Candida parapsilosis = assay: Antifungal activity against Candida parapsilosis by CLSI based broth microdilution method; format: functional; details: Lodderomyces parapsilosis
[Candida] zeylanoides = Antifungal activity against Candida zeylanoides by CLSI based broth microdilution method; format: functional; details: Dujonia zeylanoides
[1] = molecular target: T1, Lanosterol 14-alpha demethylase (Candida albicans (strain SC5314 / ATCC MYA-2876) (Yeast), UniProt P10613); assay: Inhibition of CYP51 of Candida albicans ATCC SC5314 assessed as decrease in ergosterol level by measuring residual activity at 1 ug/ml incubated for 16 hrs by GC-MS analysis (reference value: 98.3 %); details: at 1 µg/mL
T1 sequence (P10613 whole entry): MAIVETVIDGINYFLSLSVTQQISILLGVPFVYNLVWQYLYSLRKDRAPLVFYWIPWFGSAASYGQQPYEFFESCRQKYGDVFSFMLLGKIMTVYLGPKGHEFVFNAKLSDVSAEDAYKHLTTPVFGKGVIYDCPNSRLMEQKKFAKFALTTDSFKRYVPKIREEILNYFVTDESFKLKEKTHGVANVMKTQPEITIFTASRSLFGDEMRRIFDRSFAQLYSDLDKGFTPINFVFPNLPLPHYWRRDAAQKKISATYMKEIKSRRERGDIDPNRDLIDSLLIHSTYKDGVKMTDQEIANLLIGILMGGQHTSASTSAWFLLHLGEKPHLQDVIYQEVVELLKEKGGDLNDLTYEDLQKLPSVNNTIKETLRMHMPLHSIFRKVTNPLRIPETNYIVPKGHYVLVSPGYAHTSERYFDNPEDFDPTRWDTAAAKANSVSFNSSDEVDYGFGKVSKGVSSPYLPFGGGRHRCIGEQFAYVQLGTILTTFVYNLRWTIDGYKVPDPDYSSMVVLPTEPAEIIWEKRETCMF

[2] = molecular target: T1, Lanosterol 14-alpha demethylase; assay: Inhibition of CYP51 of Candida albicans ATCC SC5314 assessed as increase in obtusifoliol level at 4 ug/ml incubated for 16 hrs by GC-MS analysis (reference value: 0 %); set-up: scale not given: the % may be the effect or the level left; details: at 4 µg/mL
[3] = molecular target: T1, Lanosterol 14-alpha demethylase; assay: Inhibition of CYP51 of Candida albicans ATCC SC5314 assessed as increase in lanosterol level at 1 ug/ml incubated for 16 hrs by GC-MS analysis (reference value: 1.7 %); set-up: scale not given: the % may be the effect or the level left; details: at 1 µg/mL
[4] = molecular target: T1, Lanosterol 14-alpha demethylase; assay: Inhibition of CYP51 of Candida albicans ATCC SC5314 assessed as increase in eburicol level at 2 ug/ml incubated for 16 hrs by GC-MS analysis (reference value: 0 %); set-up: scale not given: the % may be the effect or the level left; details: at 2 µg/mL
[5] = molecular target: T1, Lanosterol 14-alpha demethylase; assay: Inhibition of CYP51 of Candida albicans ATCC SC5314 assessed as decrease in ergosterol level by measuring residual activity at 2 ug/ml incubated for 16 hrs by GC-MS analysis (reference value: 98.3 %); details: at 2 µg/mL
Candida albicans [6] = assay: Fungicidal activity against FCZ-resistant Candida albicans 904; format: functional
[7] = Cytotoxicity against human HL-60 cells by MTT assay; format: toxicity, cell-based
Candida albicans [8] = assay: Fungicidal activity against FCZ-resistant Candida albicans 901; format: functional
Candida albicans [9] = assay: Antibiofilm activity against Candida albicans CPCC400616 assessed as sessile minimum inhibitory concentration measured after 6 hrs by XTT assay; format: functional
[10] = molecular target: T1, Lanosterol 14-alpha demethylase; assay: Inhibition of CYP51 of Candida albicans ATCC SC5314 assessed as decrease in ergosterol level by measuring residual activity at 4 ug/ml incubated for 16 hrs by GC-MS analysis (reference value: 98.3 %); details: at 4 µg/mL
Candida albicans [11] = assay: Antifungal activity against FCZ-resistant Candida albicans CaR by CLSI based broth microdilution method; format: functional
[12] = molecular target: T1, Lanosterol 14-alpha demethylase; assay: Inhibition of CYP51 of Candida albicans ATCC SC5314 assessed as increase in lanosterol level at 4 ug/ml incubated for 16 hrs by GC-MS analysis (reference value: 1.7 %); set-up: scale not given: the % may be the effect or the level left; details: at 4 µg/mL
Candida albicans [13] = assay: Fungicidal activity against Candida albicans sc5314; format: functional
[14] = Cytotoxicity against human PC-3 cells by MTT assay; format: toxicity, cell-based
[15] = molecular target: T1, Lanosterol 14-alpha demethylase; assay: Inhibition of CYP51 of Candida albicans ATCC SC5314 assessed as increase in obtusifoliol level at 1 ug/ml incubated for 16 hrs by GC-MS analysis (reference value: 0 %); set-up: scale not given: the % may be the effect or the level left; details: at 1 µg/mL
Cryptococcus neoformans = assay: Antifungal activity against Cryptococcus neoformans by CLSI based broth microdilution method; format: functional
Candida albicans [16] = assay: Antifungal activity against Candida albicans by CLSI based broth microdilution method; format: functional
[17] = molecular target: T1, Lanosterol 14-alpha demethylase; assay: Inhibition of CYP51 of Candida albicans ATCC SC5314 assessed as increase in lanosterol level at 2 ug/ml incubated for 16 hrs by GC-MS analysis (reference value: 1.7 %); set-up: scale not given: the % may be the effect or the level left; details: at 2 µg/mL
[18] = molecular target: T1, Lanosterol 14-alpha demethylase; assay: Inhibition of CYP51 of Candida albicans ATCC SC5314 assessed as increase in eburicol level at 4 ug/ml incubated for 16 hrs by GC-MS analysis (reference value: 0 %); set-up: scale not given: the % may be the effect or the level left; details: at 4 µg/mL
Candida albicans [19] = assay: Antifungal activity against FCZ-resistant Candida albicans 901 by CLSI based broth microdilution method; format: functional
Candida albicans [20] = assay: Antibiofilm activity against Candida albicans SC5314 assessed as sessile minimum inhibitory concentration measured after 1.5 hrs by XTT assay; format: functional
Candida albicans [21] = assay: Fungicidal activity against FCZ-resistant Candida albicans 632; format: functional
Candida albicans [22] = assay: Antifungal activity against FCZ-resistant Candida albicans 904 by CLSI based broth microdilution method; format: functional
[23] = molecular target: T1, Lanosterol 14-alpha demethylase; assay: Inhibition of CYP51 of Candida albicans ATCC SC5314 assessed as increase in eburicol level at 1 ug/ml incubated for 16 hrs by GC-MS analysis (reference value: 0 %); set-up: scale not given: the % may be the effect or the level left; details: at 1 µg/mL
Candida albicans [24] = assay: Fungicidal activity against FCZ-resistant Candida albicans 17#; format: functional
Candida albicans [25] = assay: Antibiofilm activity against Candida albicans SC5314 assessed as sessile minimum inhibitory concentration measured after 24 hrs by XTT assay; format: functional
[26] = molecular target: T1, Lanosterol 14-alpha demethylase; assay: Inhibition of CYP51 of Candida albicans ATCC SC5314 assessed as decrease in ergosterol level by measuring residual activity at 8 ug/ml incubated for 16 hrs by GC-MS analysis (reference value: 98.3 %); details: at 8 µg/mL
Candida albicans [27] = assay: Antibiofilm activity against Candida albicans SC5314 assessed as sessile minimum inhibitory concentration measured after 3 hrs by XTT assay; format: functional
Candida albicans [28] = assay: Fungicidal activity against Candida albicans; format: functional
Candida albicans [29] = assay: Fungicidal activity against FCZ-resistant Candida albicans CaR; format: functional
[30] = Cytotoxicity against human MDA-MB-231 cells by MTT assay; format: toxicity, cell-based
Candida albicans [31] = assay: Antibiofilm activity against Candida albicans CPCC400616 assessed as sessile minimum inhibitory concentration measured after 1.5 hrs by XTT assay; format: functional
[32] = molecular target: T1, Lanosterol 14-alpha demethylase; assay: Inhibition of CYP51 of Candida albicans ATCC SC5314 assessed as increase in eburicol level at 8 ug/ml incubated for 16 hrs by GC-MS analysis (reference value: 0 %); set-up: scale not given: the % may be the effect or the level left; details: at 8 µg/mL
Candida albicans [33] = assay: Antifungal activity against FCZ-resistant Candida albicans 17# by CLSI based broth microdilution method; format: functional
[34] = molecular target: T1, Lanosterol 14-alpha demethylase; assay: Inhibition of CYP51 of Candida albicans ATCC SC5314 assessed as increase in obtusifoliol level at 8 ug/ml incubated for 16 hrs by GC-MS analysis (reference value: 0 %); set-up: scale not given: the % may be the effect or the level left; details: at 8 µg/mL
Candida albicans [35] = assay: Antibiofilm activity against Candida albicans CPCC400616 assessed as sessile minimum inhibitory concentration measured after 3 hrs by XTT assay; format: functional
[36] = molecular target: T1, Lanosterol 14-alpha demethylase; assay: Inhibition of CYP51 of Candida albicans ATCC SC5314 assessed as increase in obtusifoliol level at 2 ug/ml incubated for 16 hrs by GC-MS analysis (reference value: 0 %); set-up: scale not given: the % may be the effect or the level left; details: at 2 µg/mL
Aspergillus fumigatus = assay: Antifungal activity against Aspergillus fumigatus by CLSI based broth microdilution method; format: functional
Nakaseomyces glabratus = assay: Antifungal activity against Candida glabrata by CLSI based broth microdilution method; format: functional
Pichia kudriavzevii = assay: Antifungal activity against Pichia kudriavzevii by CLSI based broth microdilution method; format: functional
Candida albicans [37] = assay: Antifungal activity against Candida albicans sc5314 by CLSI based broth microdilution method; format: functional
[38] = molecular target: T1, Lanosterol 14-alpha demethylase; assay: Inhibition of CYP51 of Candida albicans ATCC SC5314 assessed as increase in lanosterol level at 8 ug/ml incubated for 16 hrs by GC-MS analysis (reference value: 1.7 %); set-up: scale not given: the % may be the effect or the level left; details: at 8 µg/mL
Candida albicans [39] = assay: Antibiofilm activity against Candida albicans SC5314 assessed as sessile minimum inhibitory concentration measured after 6 hrs by XTT assay; format: functional
Candida albicans [40] = assay: Antibiofilm activity against Candida albicans CPCC400616 assessed as sessile minimum inhibitory concentration measured after 24 hrs by XTT assay; format: functional
Candida albicans [41] = assay: Antifungal activity against FCZ-resistant Candida albicans 632 by CLSI based broth microdilution method; format: functional

Work on `Clc1ccc(C(Cn2ccnc2)[Se]C(Cn2ccnc2)c2ccc(Cl)cc2)cc1` (stereo not given) yielded an MIC (Candida parapsilosis) of 2 µg/mL (≈ 4.08 µM), an MIC ([Candida] zeylanoides) of 8 µg/mL (≈ 16.3 µM) and an Activity [1] of 64.7%. The Activity [2] was 9.5%, the Activity [3] was 5.1% and the Activity [4] was 56.2%. For the same compound, the Activity [5] was 10.4%, the MFC (Candida albicans [6]) was 1 µg/mL (≈ 2.04 µM) and the pIC50 [7] was 5.29. It also gave an MFC (Candida albicans [8]) of 2 µg/mL (≈ 4.08 µM), an MIC50 (Candida albicans [9]) of 1 µg/mL (≈ 2.04 µM) and an MIC80 (Candida albicans [9]) of 2 µg/mL (≈ 4.08 µM). It also gave an Activity [10] of 4.4%, an MIC (Candida albicans [11]) of 4 µg/mL (≈ 8.16 µM) and an Activity [12] of 12.4%. The MFC (Candida albicans [13]) was 2 µg/mL (≈ 4.08 µM), the pIC50 [14] was 6.01 and the Activity [15] was 1%. For the same compound, the MIC (Cryptococcus neoformans) was greater than 64 µg/mL, the MIC (Candida albicans [16]) was 2 µg/mL (≈ 4.08 µM) and the Activity [17] was 15.4%. It also gave an Activity [18] of 73.8%, an MIC (Candida albicans [19]) of 1 µg/mL (≈ 2.04 µM) and an MIC50 (Candida albicans [20]) of 0.5 µg/mL (≈ 1.02 µM). It also gave an MIC80 (Candida albicans [20]) of 2 µg/mL (≈ 4.08 µM), an MFC (Candida albicans [21]) of 4 µg/mL (≈ 8.16 µM) and an MIC (Candida albicans [22]) of 1 µg/mL (≈ 2.04 µM). The Activity [23] was 29.3%, the MFC (Candida albicans [24]) was greater than 64 µg/mL and the MIC50 (Candida albicans [25]) was 0.5 µg/mL (≈ 1.02 µM). The MIC80 (Candida albicans [25]) was 2 µg/mL (≈ 4.08 µM), the Activity [26] was 3.7% and the MIC50 (Candida albicans [27]) was 0.5 µg/mL (≈ 1.02 µM). For the same compound, the MIC80 (Candida albicans [27]) was 2 µg/mL (≈ 4.08 µM), the MFC (Candida albicans [28]) was 32 µg/mL (≈ 65.3 µM) and the MFC (Candida albicans [29]) was greater than 64 µg/mL. For the same compound, the pIC50 [30] was 5.49, the MIC50 (Candida albicans [31]) was 0.5 µg/mL (≈ 1.02 µM) and the MIC80 (Candida albicans [31]) was 2 µg/mL (≈ 4.08 µM). It also gave an Activity [32] of 55.5%, an MIC (Candida albicans [33]) of 1 µg/mL (≈ 2.04 µM) and an Activity [34] of 23.8%. The MIC50 (Candida albicans [35]) was 0.5 µg/mL (≈ 1.02 µM), the MIC80 (Candida albicans [35]) was 2 µg/mL (≈ 4.08 µM) and the Activity [36] was 18%. The MIC (Aspergillus fumigatus) was greater than 64 µg/mL, the MIC (Nakaseomyces glabratus) was 64 µg/mL (≈ 131 µM) and the MIC (Pichia kudriavzevii) was 16 µg/mL (≈ 32.6 µM). It also gave an MIC (Candida albicans [37]) of 1 µg/mL (≈ 2.04 µM), an Activity [38] of 17% and an MIC50 (Candida albicans [39]) of 0.5 µg/mL (≈ 1.02 µM). It also gave an MIC80 (Candida albicans [39]) of 4 µg/mL (≈ 8.16 µM), an MIC50 (Candida albicans [40]) of 2 µg/mL (≈ 4.08 µM) and an MIC80 (Candida albicans [40]) of 4 µg/mL (≈ 8.16 µM). It also gave an MIC (Candida albicans [41]) of 2 µg/mL (≈ 4.08 µM).
